Laboratory results as given in patent US20070270475A1, “4-Methoxy-Pyrrolidine-2-Carboxylic Acid Compounds and Derivatives Thereof as Hepatitis C Virus Inhibitors” (priority 2004, published 2007).
pIC50: −log10 of the molar value.

Tests used:
[1] = test system: Huh-7 HCV replicon cells (genotype 1a); experiment: Replicon ELISA cell based assay, genotype 1a; design: species or system HCV genotype 1a; details: Hepatitis C virus, Huh-7 genotype 1a replicon, 72 hours
Protocol: (§1) Replicon ELISA Cell Based Assay
(§2) 100 μL of medium containing 10% FCS were added to each well of clear, flat-bottomed 96 well microplates, excepting wells in the top row. Test compound was diluted in assay medium to twice the final required starting concentration from a 40 mM stock solution in DMSO. 200 μL of the starting dilution were introduced into two wells each in the top row and doubling dilutions made down the plate by the sequential transfer of 100 μL aliquots with thorough mixing in the wells; the final 100 μL were discarded. The two bottom rows were not used for compound dilutions. Huh-7 HCV replicon cell monolayers nearing confluency were stripped from growth flasks with versene-trypsin solution and the cells were resuspended in assay medium at either 2×10^5 cells/mL (sub-line 5-15; genotype 1b; Lohmann, V., Korner, F., Koch, J-O., Herian, U., Thielmann, L. and Bartenschlager, R., 1999, Science, 285, pp 110-113) or at 3×10^5 cells/mL (genotype 1a; Gu, B., Gates, A.T., Isken, O., Behrens, S. E. and Sarisky, R. T., J. Virol., 2003, 77, 5352-5359). 100 μL of cell suspension were added to all wells and the plates incubated at 37° C. for 72 hours in a 5% CO2 atmosphere.
(§3) Following incubation, the assay medium was aspirated from the plates. The cell sheets were washed by gentle immersion in phosphate buffered saline (PBS), which was then aspirated off, and fixed with acetone:methanol (1:1) for 5 minutes. Following a further wash with PBS, 100 μL of ELISA diluent (PBS+0.05% v/v Tween 20+2% w/v skimmed milk powder) were added to all wells and the plates incubated at 37° C. for 30 minutes on an orbital platform. The diluent was removed and each well then received 50 μL of a 1/200 dilution of anti-HCV specific, murine, monoclonal antibody (either Virostat #1872 or #1877), except for wells in one of the compound-free control rows which received diluent alone to act as negative controls. The plates were incubated at 37° C. for 2 hours and washed 3 times with PBS/0.05% Tween 20, then 50 μL of horseradish peroxidase conjugated, anti-mouse, rabbit polyclonal serum (Dako #P0260), diluted 1/1000, were added to all wells. The plates were incubated for a further hour, the antibody removed and the cell sheets washed 5 times with PBS/Tween and blotted dry. The assay was developed by the addition of 50 μL of ortho-phenylenediamine/peroxidase substrate in urea/citrate buffer (SigmaFast, Sigma #P-9187) to each well, and colour allowed to develop for up to 15 minutes. The reaction was stopped by the addition of 25 μL per well of 2 M sulphuric acid and the plates were read at 490 nm on a Fluostar Optima spectrophotometer.
(§4) The substrate solution was removed and the plates were washed in tap water, blotted dry and the cells stained with 5% carbol fuchsin in water for 30 minutes. The stain was discarded and the cell sheets washed, dried and examined microscopically to assess cytotoxicity.
(§5) The absorbance values from all compound-free wells that had received both primary and secondary antibodies were averaged to obtain a positive control value. The mean absorbance value from the compound-free wells that had not received the primary antibody was used to provide the negative (background) control value. The readings from the duplicate wells at each compound concentration were averaged and, after the subtraction of the mean background from all values, were expressed as a percentage of the positive control signal. The quantifiable and specific reduction of expressed protein detected by the ELISA in the presence of a drug can be used as a measure of replicon inhibition. GraFit software (Erithacus Software Ltd.) was used to plot the curve of percentage inhibition against compound concentration and derive the 50% inhibitory concentration (IC50) for the compound.

[2] = test system: Huh-7 HCV replicon cells (sub-line 5-15; genotype 1b); experiment: Replicon ELISA cell based assay, genotype 1b (sub-line 5-15); design: species or system HCV genotype 1b; details: Hepatitis C virus, Huh-7 genotype 1b replicon sub-line 5-15, 72 hours
Protocol: as §1, §2, §3, §4, §5

COC[C@H]1C[C@@](Cc2ccccc2)(C(=O)O)N(C(=O)c2ccc(C(C)(C)C)c(OC)c2)[C@H]1c1nccs1 (racemic) [Compound E, rel-(2R,4S,5R)-2-benzyl-1-(3-methoxy-4-tert-butylbenzoyl)-4-methoxymethyl-5-(1,3-thiazol-2-yl)-pyrrolidine-2-carboxylic acid, reference compound]
pIC50 [1]: < 4.00 | pIC50 [2]: 5.00 to 6.82

COC[C@H]1C[C@@](Cn2cccn2)(C(=O)O)N(C(=O)c2ccc(C(C)(C)C)c(OC)c2)[C@H]1c1nccs1 (racemic) [Example 6, rel-(2R,4S,5R)-1-(3-Methoxy-4-tert-butylbenzoyl)-4-(methoxymethyl)-2-(1H-pyrazol-1-ylmethyl)-5-(1,3-thiazol-2-yl)pyrrolidine-2-carboxylic acid]
pIC50 [1]: > 5.00 | pIC50 [2]: > 6.82

COC[C@H]1C[C@@](Cc2cscn2)(C(=O)O)N(C(=O)c2ccc(C(C)(C)C)c(OC)c2)[C@H]1c1ncc(C)s1 (racemic) [Example 1, rel-(2R,4S,5R)-1-(3-Methoxy-4-tert-butylbenzoyl)-4-(methoxymethyl)-5-(5-methyl-1,3-thiazol-2-yl)-2-(1,3-thiazol-4-ylmethyl)pyrrolidine-2-carboxylic acid]
pIC50 [1]: > 5.00 | pIC50 [2]: > 6.82

COC[C@H]1C[C@@](Cc2cscn2)(C(=O)O)N(C(=O)c2ccc(C(C)(C)C)c(OC)c2)[C@H]1c1nccs1 (single isomer, unassigned; enantiomer a) [Example 12]
pIC50 [1]: > 5.00 | pIC50 [2]: > 6.82

COC[C@H]1C[C@@](Cc2ccsn2)(C(=O)O)N(C(=O)c2ccc(C(C)(C)C)c(OC)c2)[C@H]1c1nccs1 (single isomer, unassigned; enantiomer a) [Example 5]
pIC50 [1]: > 5.00 | pIC50 [2]: > 6.82

COC[C@H]1C[C@@](Cn2cccn2)(C(=O)O)N(C(=O)c2ccc(C(C)(C)C)c(OC)c2)[C@H]1c1nccs1 (single isomer, unassigned) [Example 7]
pIC50 [1]: > 5.00 | pIC50 [2]: > 6.82

COC[C@H]1C[C@@](CC(C)C)(C(=O)O)N(C(=O)c2ccc(C(C)(C)C)c(OC)c2)[C@H]1c1nccs1 (racemic) [Compound A, rel-(2S,4S,5R)-2-isobutyl-1-(3-methoxy-4-tert-butylbenzoyl)-4-methoxymethyl-5-(1,3-thiazol-2-yl)pyrrolidine-2-carboxylic acid, reference compound]
pIC50 [1]: 4.00 to 5.00 | pIC50 [2]: 5.00 to 6.82

COC[C@H]1C[C@@](Cn2cccn2)(C(=O)O)N(C(=O)c2ccc(C(C)(C)C)c(OC)c2)[C@H]1c1ncc(C)s1 (racemic) [Example 10, rel-(2R,4S,5R)-1-(3-Methoxy-4-tert-butylbenzoyl)-4-(methoxymethyl)-5-(5-methyl-1,3-thiazol-2-yl)-2-(1H-pyrazol-1-ylmethyl)pyrrolidine-2-carboxylic acid]
pIC50 [1]: > 5.00 | pIC50 [2]: > 6.82

COC[C@H]1C[C@@](Cc2ccsn2)(C(=O)O)N(C(=O)c2ccc(C(C)(C)C)c(OC)c2)[C@H]1c1nccs1 (racemic) [Example 4, rel-(2R,4S,5R)-1-(3-Methoxy-4-tert-butylbenzoyl)-4-(methoxymethyl)-5-(1,3-thiazol-2-yl)-2-(1,2-thiazol-3-ylmethyl)pyrrolidine-2-carboxylic acid]
pIC50 [1]: > 5.00 | pIC50 [2]: > 6.82

COC[C@H]1C[C@@](CC(C)C)(C(=O)O)N(C(=O)c2ccc(C(C)(C)C)c(OC)c2)[C@H]1c1nccs1 [Compound B, (2S,4S,5R)-2-isobutyl-1-(3-methoxy-4-tert-butylbenzoyl)-4-methoxymethyl-5-(1,3-thiazol-2-yl)pyrrolidine-2-carboxylic acid, reference compound]
pIC50 [1]: 4.00 to 5.00 | pIC50 [2]: 5.00 to 6.82

COC[C@H]1C[C@@](Cc2ccsn2)(C(=O)O)N(C(=O)c2ccc(C(C)(C)C)c(OC)c2)[C@H]1c1ncc(C)s1 (racemic) [Example 9, rel-(2R,4S,5R)-1-(3-Methoxy-4-tert-butylbenzoyl)-4-(methoxymethyl)-5-(5-methyl-1,3-thiazol-2-yl)-2-(1,2-thiazol-3-ylmethyl)pyrrolidine-2-carboxylic acid]
pIC50 [1]: > 5.00 | pIC50 [2]: > 6.82

COC[C@H]1C[C@@](Cc2cscn2)(C(=O)O)N(C(=O)c2ccc(C(C)(C)C)c(OC)c2)[C@H]1c1ncc(C)s1 (single isomer, unassigned; enantiomer a) [Example 2]
pIC50 [1]: > 5.00 | pIC50 [2]: > 6.82

COC[C@H]1C[C@@](CC(C)C)(C(=O)O)N(C(=O)c2ccc(C(C)(C)C)c(OC)c2)[C@H]1c1ncc(C)s1 (racemic) [Compound C, rel-(2S,4S,5R)-2-isobutyl-1-(3-methoxy-4-tert-butylbenzoyl)-4-methoxymethyl-5-(5-methyl-1,3-thiazol-2-yl)pyrrolidine-2-carboxylic acid, reference compound]
pIC50 [1]: 4.00 to 5.00

COC[C@H]1C[C@@](Cc2nccs2)(C(=O)O)N(C(=O)c2ccc(C(C)(C)C)c(OC)c2)[C@H]1c1ncc(C)s1 (racemic) [Example 8, rel-(2R,4S,5R)-1-(3-Methoxy-4-tert-butylbenzoyl)-4-(methoxymethyl)-5-(5-methyl-1,3-thiazol-2-yl)-2-(1,3-thiazol-2-ylmethyl)pyrrolidine-2-carboxylic acid]
pIC50 [1]: > 5.00 | pIC50 [2]: 5.00 to 6.82

COCC1CC(CC(C)C)(C(=O)O)N(C(=O)c2ccc(C(C)(C)C)c(OC)c2)C1c1ncc(C)s1 (single isomer, unassigned; enantiomer a) [Compound D, reference compound]
pIC50 [1]: 4.00 to 5.00 | pIC50 [2]: 5.00 to 6.82

COC[C@H]1C[C@@](Cn2cccn2)(C(=O)O)N(C(=O)c2ccc(C(C)(C)C)c(OC)c2)[C@H]1c1ncc(C)s1 (single isomer, unassigned; enantiomer a) [Example 11]
pIC50 [1]: > 5.00 | pIC50 [2]: > 6.82

COC[C@H]1C[C@@](Cc2cscn2)(C(=O)O)N(C(=O)c2ccc(C(C)(C)C)c(OC)c2)[C@H]1c1nccs1 (racemic) [Example 3, rel-(2R,4S,5R)-1-(3-Methoxy-4-tert-butylbenzoyl)-4-(methoxymethyl)-5-(1,3-thiazol-2-yl)-2-(1,3-thiazol-4-ylmethyl)pyrrolidine-2-carboxylic acid]
pIC50 [1]: > 5.00 | pIC50 [2]: > 6.82
